# Laboratory results as given in ChEMBL document CHEMBL1201862, “PubChem BioAssay data set” (2004).
# The source made the active and inactive calls.
# Key:
# [1] = target: T1, Sentrin-specific protease 6 (Homo sapiens, UniProt Q9GZR1); assay: SAR Analysis of small molecule inhibitors of Sentrin-specific protease 6 (SENP6) using a Luminescent assay. [Related pubchem assays (depositor defined):AID2582, AID2599]; type: functional
# T1 sequence (Q9GZR1 whole entry): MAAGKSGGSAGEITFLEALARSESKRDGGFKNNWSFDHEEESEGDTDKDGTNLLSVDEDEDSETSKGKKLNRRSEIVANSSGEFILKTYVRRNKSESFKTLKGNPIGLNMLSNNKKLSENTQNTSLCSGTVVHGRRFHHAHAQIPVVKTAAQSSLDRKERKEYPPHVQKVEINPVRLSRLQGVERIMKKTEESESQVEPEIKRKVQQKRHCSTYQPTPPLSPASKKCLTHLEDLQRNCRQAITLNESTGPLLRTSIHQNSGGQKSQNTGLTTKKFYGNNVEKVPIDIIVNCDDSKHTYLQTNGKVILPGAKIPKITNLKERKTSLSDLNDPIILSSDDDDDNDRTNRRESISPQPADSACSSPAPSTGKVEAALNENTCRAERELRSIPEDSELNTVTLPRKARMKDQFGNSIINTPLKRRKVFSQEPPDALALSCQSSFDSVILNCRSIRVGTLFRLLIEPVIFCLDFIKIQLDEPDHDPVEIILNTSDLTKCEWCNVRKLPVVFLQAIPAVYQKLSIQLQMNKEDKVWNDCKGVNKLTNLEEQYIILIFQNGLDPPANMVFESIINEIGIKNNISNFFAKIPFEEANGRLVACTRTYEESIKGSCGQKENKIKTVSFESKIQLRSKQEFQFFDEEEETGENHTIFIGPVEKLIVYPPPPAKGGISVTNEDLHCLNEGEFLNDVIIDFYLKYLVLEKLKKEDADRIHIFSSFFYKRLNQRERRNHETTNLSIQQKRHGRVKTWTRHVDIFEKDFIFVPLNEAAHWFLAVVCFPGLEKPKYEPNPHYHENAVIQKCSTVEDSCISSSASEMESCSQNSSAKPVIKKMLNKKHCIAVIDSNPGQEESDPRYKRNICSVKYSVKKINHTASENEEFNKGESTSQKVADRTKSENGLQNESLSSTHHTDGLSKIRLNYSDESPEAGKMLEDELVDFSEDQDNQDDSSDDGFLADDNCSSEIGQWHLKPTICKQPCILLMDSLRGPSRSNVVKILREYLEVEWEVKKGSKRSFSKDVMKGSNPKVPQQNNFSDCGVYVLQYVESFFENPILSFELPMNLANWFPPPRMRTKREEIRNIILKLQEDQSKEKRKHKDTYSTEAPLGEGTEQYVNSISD
# Caspase-3 [2] = target: T2, Caspase-3 (Homo sapiens, UniProt P42574); assay: SAR Analysis of small molecule inhibitors of Sentrin-specific proteases (SENPs) using a Caspase-3 Selectivity assay. [Related pubchem assays (depositor defined):AID2540, AID2599, AID434973, AID489001]; type: functional
# T2 sequence (P42574 whole entry): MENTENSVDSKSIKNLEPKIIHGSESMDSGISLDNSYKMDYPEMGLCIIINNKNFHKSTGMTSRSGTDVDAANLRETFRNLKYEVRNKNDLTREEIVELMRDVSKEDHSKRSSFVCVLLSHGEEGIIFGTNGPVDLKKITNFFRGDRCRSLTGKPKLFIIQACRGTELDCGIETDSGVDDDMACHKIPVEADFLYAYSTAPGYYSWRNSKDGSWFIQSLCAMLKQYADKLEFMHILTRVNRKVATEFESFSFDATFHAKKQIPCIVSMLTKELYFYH
# [3] = target: T3, Sentrin-specific protease 8 (Homo sapiens, UniProt Q96LD8); type: functional;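 further: luminescence read-out of SENP8 inhibition, dose-response confirmation following an ultra-high-throughput screen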
# T3 sequence (Q96LD8 whole entry): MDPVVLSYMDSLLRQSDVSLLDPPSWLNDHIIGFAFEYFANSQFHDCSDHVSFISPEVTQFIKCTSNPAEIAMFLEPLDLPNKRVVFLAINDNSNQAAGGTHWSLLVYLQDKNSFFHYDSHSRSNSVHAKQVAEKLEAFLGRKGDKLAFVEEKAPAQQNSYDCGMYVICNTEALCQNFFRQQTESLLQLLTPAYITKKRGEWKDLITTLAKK
# Caspase-3 [4] = target: T2, Caspase-3; type: functional
# [5] = target: T1, Sentrin-specific protease 6; type: functional
# [6] = target: T3, Sentrin-specific protease 8; assay: inhibition of human SENP8 cleavage activity – biochemical, luminescence, SAR follow-up (AID 504501); type: functional
# [7] = target: T4, Sentrin-specific protease 7 (Homo sapiens, UniProt Q9BQF6); type: functional;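 further: Luminescence-based dose-response confirmation of ultra-high-throughput screening hits, measuring inhibition of SENP7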
# T4 sequence (Q9BQF6 whole entry): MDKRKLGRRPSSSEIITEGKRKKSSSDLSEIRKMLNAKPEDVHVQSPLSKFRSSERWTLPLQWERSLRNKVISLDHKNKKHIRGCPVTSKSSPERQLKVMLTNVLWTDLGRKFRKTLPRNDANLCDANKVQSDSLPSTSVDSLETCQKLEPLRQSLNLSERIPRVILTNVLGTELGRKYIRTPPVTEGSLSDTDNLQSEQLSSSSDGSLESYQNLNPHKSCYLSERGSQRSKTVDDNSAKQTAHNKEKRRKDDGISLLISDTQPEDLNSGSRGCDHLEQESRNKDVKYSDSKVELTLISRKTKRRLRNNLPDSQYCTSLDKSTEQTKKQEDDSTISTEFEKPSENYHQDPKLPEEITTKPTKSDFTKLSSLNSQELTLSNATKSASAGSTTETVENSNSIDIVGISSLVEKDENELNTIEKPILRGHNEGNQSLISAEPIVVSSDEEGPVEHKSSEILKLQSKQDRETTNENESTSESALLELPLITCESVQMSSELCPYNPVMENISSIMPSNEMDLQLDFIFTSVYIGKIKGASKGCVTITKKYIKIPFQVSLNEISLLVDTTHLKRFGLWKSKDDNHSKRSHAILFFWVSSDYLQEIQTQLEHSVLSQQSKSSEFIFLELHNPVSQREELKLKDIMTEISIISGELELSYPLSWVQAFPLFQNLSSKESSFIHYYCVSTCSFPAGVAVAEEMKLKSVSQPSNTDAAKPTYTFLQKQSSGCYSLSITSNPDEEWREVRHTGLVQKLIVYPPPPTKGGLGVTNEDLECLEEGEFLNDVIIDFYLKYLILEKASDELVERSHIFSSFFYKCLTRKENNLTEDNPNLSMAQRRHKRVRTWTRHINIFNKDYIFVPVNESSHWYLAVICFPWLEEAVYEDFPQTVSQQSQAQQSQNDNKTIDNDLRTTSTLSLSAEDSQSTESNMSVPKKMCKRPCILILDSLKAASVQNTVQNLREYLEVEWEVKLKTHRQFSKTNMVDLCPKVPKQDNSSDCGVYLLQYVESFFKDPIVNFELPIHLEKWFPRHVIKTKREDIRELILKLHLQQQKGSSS
# [8] = target: T4, Sentrin-specific protease 7; assay: inhibition of human SENP7 cleavage activity – biochemical, luminescence, SAR follow-up (AID 504497); type: functional
# [9] = NIH-3T3 fibroblast cytotoxicity, dose response, cytotoxicity control, cell-based, fluorescence, Alamar Blue, secondary assay (AID 2327); type: functional;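 further: NIH-3T3 mouse fibroblasts cultured with fluconazole at 8 µg/mL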
# [10] = fluconazole-exposed Candida albicans growth modulators – fluorescence, retest, confirmation (AID 2467); type: functional, cell-based
# [11] = target: T5, Serine/threonine-protein phosphatase (Candida dubliniensis (strain CD36 / CBS 7987 / NCPF 3949 / NRRLY-17841) (Yeast), UniProt B9W6M3); assay: blockers of CaCl2-induced CDRE-lacZ signaling – S. cerevisiae, luminescence, secondary, dose response (AID 2388); type: functional, cell-based;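 further: yeast reporter cells carrying a calcineurin-responsive lacZ construct stimulated with calcium chloride; luminescent beta-galactosidase reporter signal in whole cells rather than isolated phosphatase activity; potency for inhibition where a drop in reporter signal means calcineurin blockade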
# T5 sequence (B9W6M3 whole entry): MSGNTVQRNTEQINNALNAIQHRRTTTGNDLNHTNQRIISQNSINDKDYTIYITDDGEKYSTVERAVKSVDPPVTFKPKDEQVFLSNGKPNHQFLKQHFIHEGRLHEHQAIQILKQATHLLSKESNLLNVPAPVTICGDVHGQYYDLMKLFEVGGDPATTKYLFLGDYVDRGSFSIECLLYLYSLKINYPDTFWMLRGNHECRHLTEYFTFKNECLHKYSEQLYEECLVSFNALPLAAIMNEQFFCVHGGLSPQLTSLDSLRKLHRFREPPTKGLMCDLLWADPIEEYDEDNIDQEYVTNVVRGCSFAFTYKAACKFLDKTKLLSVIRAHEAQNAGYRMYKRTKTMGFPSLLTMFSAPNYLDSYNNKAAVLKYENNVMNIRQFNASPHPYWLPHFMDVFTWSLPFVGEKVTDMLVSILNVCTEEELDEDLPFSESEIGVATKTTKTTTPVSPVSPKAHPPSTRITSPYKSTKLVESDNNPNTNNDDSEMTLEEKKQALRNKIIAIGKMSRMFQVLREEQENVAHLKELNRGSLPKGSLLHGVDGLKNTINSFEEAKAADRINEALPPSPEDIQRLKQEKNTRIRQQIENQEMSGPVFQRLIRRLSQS
# [12] = target: ATP-dependent molecular chaperone HSP82 (Candida albicans (strain WO-1) (Yeast), UniProt C4YTQ8); assay: steroid-induced GRE reporter decrease in yeast – S. cerevisiae, luminescence, Hsp90 inhibitor project, dose response (AID 2400); type: functional, cell-based;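 further: beta-galactosidase luminescence from glucocorticoid response element reporter as proxy for Hsp90 function; inhibitor potency where signal loss means Hsp90 inhibition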
# ATP-dependent molecular chaperone HSP82, sequence (C4YTQ8 whole entry): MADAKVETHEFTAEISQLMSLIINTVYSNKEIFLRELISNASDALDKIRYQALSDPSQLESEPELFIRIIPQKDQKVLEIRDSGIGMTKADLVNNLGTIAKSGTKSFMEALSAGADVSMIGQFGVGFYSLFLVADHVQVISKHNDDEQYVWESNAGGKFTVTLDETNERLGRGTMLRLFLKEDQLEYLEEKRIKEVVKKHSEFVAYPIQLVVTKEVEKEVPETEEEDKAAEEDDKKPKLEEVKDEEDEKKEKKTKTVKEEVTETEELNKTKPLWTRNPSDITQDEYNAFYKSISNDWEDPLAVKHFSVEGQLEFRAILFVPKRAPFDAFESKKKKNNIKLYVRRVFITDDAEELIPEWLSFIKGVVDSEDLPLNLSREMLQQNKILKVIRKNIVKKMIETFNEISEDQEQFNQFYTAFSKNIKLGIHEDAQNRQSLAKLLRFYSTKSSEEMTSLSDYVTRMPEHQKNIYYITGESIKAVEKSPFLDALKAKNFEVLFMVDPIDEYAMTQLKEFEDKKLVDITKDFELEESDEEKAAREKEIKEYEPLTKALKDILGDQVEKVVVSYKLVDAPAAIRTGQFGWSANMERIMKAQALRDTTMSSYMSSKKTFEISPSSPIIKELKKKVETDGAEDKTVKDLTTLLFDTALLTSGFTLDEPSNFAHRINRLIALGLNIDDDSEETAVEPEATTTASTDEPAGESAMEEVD
# [13] = target: Cyclin-dependent kinase 5/CDK5 activator 1 (Homo sapiens, UniProt Q00535); assay: blockade of human CDK5 activity – biochemical, cherry-picked samples, set 2, dose response (AID 504545)
# Cyclin-dependent kinase 5/CDK5 activator 1, sequence (Q00535 whole entry): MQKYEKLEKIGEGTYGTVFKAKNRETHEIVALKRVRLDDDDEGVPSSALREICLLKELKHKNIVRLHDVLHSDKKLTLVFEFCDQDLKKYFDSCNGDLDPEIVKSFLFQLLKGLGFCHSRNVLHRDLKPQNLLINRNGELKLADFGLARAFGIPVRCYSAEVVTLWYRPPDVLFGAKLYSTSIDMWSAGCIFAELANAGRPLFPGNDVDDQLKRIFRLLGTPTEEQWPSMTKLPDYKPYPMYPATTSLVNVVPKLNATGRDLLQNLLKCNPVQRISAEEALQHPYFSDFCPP
# Cyclin-dependent kinase 5/CDK5 activator 1, sequence (Q15078 whole entry, further chain): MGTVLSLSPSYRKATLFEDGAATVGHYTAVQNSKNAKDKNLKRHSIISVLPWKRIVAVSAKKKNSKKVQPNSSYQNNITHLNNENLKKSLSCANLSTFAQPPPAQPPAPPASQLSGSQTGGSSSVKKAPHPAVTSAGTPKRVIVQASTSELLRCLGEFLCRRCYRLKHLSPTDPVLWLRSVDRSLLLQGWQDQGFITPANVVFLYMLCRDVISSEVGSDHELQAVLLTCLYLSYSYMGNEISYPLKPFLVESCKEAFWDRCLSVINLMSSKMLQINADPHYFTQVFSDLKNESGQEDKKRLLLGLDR
# [14] = target: G-protein coupled receptor 55 (Homo sapiens, UniProt Q9Y2T6); assay: inhibition of LPI-stimulated GPR55 beta-arrestin translocation – imaging, U2OS, beta-arrestin-GFP, LPI agonist, primary screen (AID 2013); type: functional;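 further: antagonist potency measured as reduced agonist-driven arrestin aggregation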
# G-protein coupled receptor 55, sequence (Q9Y2T6 whole entry): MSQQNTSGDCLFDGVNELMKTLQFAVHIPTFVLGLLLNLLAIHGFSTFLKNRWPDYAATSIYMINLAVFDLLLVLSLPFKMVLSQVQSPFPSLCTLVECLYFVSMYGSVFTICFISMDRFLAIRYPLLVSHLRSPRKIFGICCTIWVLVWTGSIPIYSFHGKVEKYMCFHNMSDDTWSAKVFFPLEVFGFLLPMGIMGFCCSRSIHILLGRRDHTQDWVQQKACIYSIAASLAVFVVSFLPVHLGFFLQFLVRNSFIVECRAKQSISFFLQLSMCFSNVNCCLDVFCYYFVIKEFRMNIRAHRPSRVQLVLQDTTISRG
# [15] = system: Streptococcus sp. 'group A'; assay: Streptococcus pyogenes SK(-)GAS viability under kanamycin – luminescence, BacTiterGlo, confirmation, counter-screen for streptokinase expression inhibitor project, dose response (AID 1900); type: functional, organism-based
# Streptokinase A = target: T6, Streptokinase A (Streptococcus pyogenes serotype M1, UniProt P10520); assay: viability-normalized secreted streptokinase activity reduction – plasminogen activation absorbance, OD405, dose response (AID 1914); type: functional, Streptococcus pyogenes M1 GAS;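 further: secreted streptokinase activity via plasminogen activation per viability signal from cell pellet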
# T6 sequence (P10520 whole entry): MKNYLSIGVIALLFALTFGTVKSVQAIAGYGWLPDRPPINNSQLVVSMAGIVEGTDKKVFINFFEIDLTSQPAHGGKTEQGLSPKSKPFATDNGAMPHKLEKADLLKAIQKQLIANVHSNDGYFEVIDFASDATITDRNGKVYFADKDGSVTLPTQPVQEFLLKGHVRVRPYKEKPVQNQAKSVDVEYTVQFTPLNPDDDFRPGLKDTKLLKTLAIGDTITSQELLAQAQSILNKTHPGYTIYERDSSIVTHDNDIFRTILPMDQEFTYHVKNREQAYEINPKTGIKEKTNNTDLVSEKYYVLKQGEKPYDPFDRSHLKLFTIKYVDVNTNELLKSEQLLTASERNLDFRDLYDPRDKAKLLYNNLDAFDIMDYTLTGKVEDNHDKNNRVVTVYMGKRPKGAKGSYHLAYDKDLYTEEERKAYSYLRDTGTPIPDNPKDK
# HEK293 = assay: EBV LMP1 TES2 canonical NF-kB signalling blockers – cell-based, HEK293, luciferase, cherry-pick, dose response (AID 588343); type: functional; conditions: Homo sapiens
# Streptococcus = assay: GAS UMAA2166 growth inhibition – luminescence, BacTiterGlo, counter-screen for streptokinase expression inhibitor project, dose response (AID 1915); type: functional, organism-based;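 further: potency for reduction of bacterial viability or growth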
# [16] = blockade of melanocortin 4 receptor signaling – cell-based, plate reader, cherry pick, counter-screen for LGR2 antagonist project, dose response (AID 743444); type: functional;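 further: transfected HEK 293 cells stimulated with alpha-MSH peptide; potency of inhibitors of the alpha-MSH evoked signal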
# [17] = blockers of bursicon-stimulated LGR2 cAMP reporter – cell-based, HEK293, CRE-luciferase reporter, cherry pick, set 2, dose response (AID 743343); type: functional;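 further: transfected cells were stimulated with diluted bursicon conditioned medium after compound addition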
# Vero = assay: viability of Vero cells under compound – cytotoxicity control for flavivirus capping enzyme inhibitors (AID 588742); type: functional; conditions: Chlorocebus sabaeus
structure (smiles),measurement,setting,value
O=C(O)c1ccc(OC2CSC2)cc1,IC50,[1],18.7 µM (active)
same,IC50,Caspase-3 [2],> 99 µM (inactive)
same,IC50,[3],8.43 µM (active)
same,IC50,Caspase-3 [4],94.9 µM (active)
same,IC50,[5],13 µM (active)
same,IC50,[6],30 µM (active)
same,IC50,[7],> 100 µM (inactive)
same,IC50,[8],> 99 µM (inactive)
Clc1ccc2oc(-c3ccccc3)nc2c1,IC50,[3],> 100 µM (inactive)
same,IC50,Caspase-3 [4],14.2 µM (active)
same,IC50,[5],22 µM (active)
same,IC50,[7],7.93 µM (active)
CCNc1nc(N)nc(-c2cc(Cl)ccc2O)n1,EC50,[9],40.2 µM (active)
same,EC50,[10],0.53 µM (active)
same,IC50,[3],13.7 µM (active)
same,IC50,Caspase-3 [4],18.9 µM (active)
same,IC50,[5],12 µM (active)
same,EC50,[11],> 180 µM (inactive)
same,EC50,[12],20.1 µM (active)
same,AC50,[13],7.06 µM (active)
same,IC50,[7],3.99 µM (active)
COc1ccc(NC2=NCC(Cc3ccc(Br)cc3)S2)cc1 (stereo not drawn),IC50,[14],1.31 µM (active)
same,EC50,[15],9.96 µM (active)
same,EC50,Streptokinase A,> 150 µM (not active)
same,AC50,HEK293,183 µM (active)
same,EC50,Streptococcus,> 150 µM (not active)
Cc1cnc(NC(=O)c2ccc(OCC3CCCO3)cc2)s1 (stereo not drawn),AC50,[16],5.51 µM (active)
same,AC50,[17],4.84 µM (active)
same,AC50,HEK293,1.93 µM (active)
CCOC(=O)c1cn2nc(N3CCCCC3)ccc2n1,AC50,[16],5.1 µM (active)
same,AC50,[17],2.62 µM (active)
same,AC50,HEK293,2.8 µM (active)
O=C1C(=Cc2ccccc2[N+](=O)[O-])Cc2ccccc21,CC50,Vero,20.9 µM (active)
